SMILES strings stand for the structures. Where only a bound is given, the exact number is not on record here.

Type in all cases: cell-based
One data set addresses T1, NLRP3 inflammasome (Homo sapiens, UniProt Q96P20).
T1 construct: NLRP3-dependent IL-1β secretion was stimulated in PMA-differentiated THP-1 cells by the addition of nigericin; host or cells: THP-1 cells, PMA-differentiated
The experiment in a line: IL-1β secretion assay (nigericin-activated, PMA-differentiated THP-1 cells, HTRF). The following applies: 15 μM nigericin, 3 h, arithmetic mean of at least 3 experiments. (In general: Time-resolved FRET reads energy transfer from a long-lived donor to a nearby acceptor.)

The subject of data set [1] is Pam3CSK4-stimulated, NF-κB-dependent TNF-α secretion. The experiment in a line: TNF-α secretion assay (counter screen, THP-1 cells, HTRF). The following applies: Homo sapiens, undifferentiated THP-1 cells, 3 h, at least 2 replicates. As to the method: Monocytic THP-1 cells were maintained according to providers' instructions in RPMI media as described above. Undifferentiated cells were plated at 50,000 cells per well in a 384-well flat-bottom cell culture plates (Greiner, #781986), and allowed to rest overnight. Experimental compounds were prepared and added as described above. TNF-α secretion was triggered by the addition of either 1 μg/mL LPS (Sigma, #L4391) or 100 ng/ml Pam3CSK4 (Invivogen, #tlrl-pms) depending on the experiment, and cells were incubated for 3 h. 10 μL supernatant was removed, and TNF-α levels were monitored using an HTRF assay (CisBio, #62TNFPEC) according to manufacturers' instructions. Viability was monitored as
IC50 values were calculated from the plot of percentage of inhibition versus the inhibitor concentration by a logistics fit according to: y=A2+(A1−A2)/(1+(x/IC50)^p) where y is the %-inhibition at the inhibitor concentration, x. A1 is the lowest inhibition value, i.e. 0%, and A2 the maximum inhibition value, i.e. 100%. The exponent, p, is the Hill coefficient. The curve fitting was conducted with an internally developed software suite. NLRP3-dependent IL-1β secretion was stimulated in PMA-differentiated THP-1 cells by the addition of nigericin, and cytokines were measured in the […] after 3 h. As discussed above, activation of the NLRP3 inflammasome requires both an NF-κB-dependent priming step and the addition of a NLRP3 activator. […] Data for IL-1β secretion was calculated as the arithmetic mean of at least 3 individual experiments, and TNF-α secretion data was consistent across at least 2 individual replicates.
Background: The purpose of a counterscreen is to sort out artefacts and off-target activity.

The target of data set [2] is T2, alpha-subunit of the hERG channel (Homo sapiens, UniProt Q12809).
T2 construct: expressed in transfected cells; host or cells: CHO (T-REX) cells, tetracycline-induced
T2 sequence (Q12809 whole entry): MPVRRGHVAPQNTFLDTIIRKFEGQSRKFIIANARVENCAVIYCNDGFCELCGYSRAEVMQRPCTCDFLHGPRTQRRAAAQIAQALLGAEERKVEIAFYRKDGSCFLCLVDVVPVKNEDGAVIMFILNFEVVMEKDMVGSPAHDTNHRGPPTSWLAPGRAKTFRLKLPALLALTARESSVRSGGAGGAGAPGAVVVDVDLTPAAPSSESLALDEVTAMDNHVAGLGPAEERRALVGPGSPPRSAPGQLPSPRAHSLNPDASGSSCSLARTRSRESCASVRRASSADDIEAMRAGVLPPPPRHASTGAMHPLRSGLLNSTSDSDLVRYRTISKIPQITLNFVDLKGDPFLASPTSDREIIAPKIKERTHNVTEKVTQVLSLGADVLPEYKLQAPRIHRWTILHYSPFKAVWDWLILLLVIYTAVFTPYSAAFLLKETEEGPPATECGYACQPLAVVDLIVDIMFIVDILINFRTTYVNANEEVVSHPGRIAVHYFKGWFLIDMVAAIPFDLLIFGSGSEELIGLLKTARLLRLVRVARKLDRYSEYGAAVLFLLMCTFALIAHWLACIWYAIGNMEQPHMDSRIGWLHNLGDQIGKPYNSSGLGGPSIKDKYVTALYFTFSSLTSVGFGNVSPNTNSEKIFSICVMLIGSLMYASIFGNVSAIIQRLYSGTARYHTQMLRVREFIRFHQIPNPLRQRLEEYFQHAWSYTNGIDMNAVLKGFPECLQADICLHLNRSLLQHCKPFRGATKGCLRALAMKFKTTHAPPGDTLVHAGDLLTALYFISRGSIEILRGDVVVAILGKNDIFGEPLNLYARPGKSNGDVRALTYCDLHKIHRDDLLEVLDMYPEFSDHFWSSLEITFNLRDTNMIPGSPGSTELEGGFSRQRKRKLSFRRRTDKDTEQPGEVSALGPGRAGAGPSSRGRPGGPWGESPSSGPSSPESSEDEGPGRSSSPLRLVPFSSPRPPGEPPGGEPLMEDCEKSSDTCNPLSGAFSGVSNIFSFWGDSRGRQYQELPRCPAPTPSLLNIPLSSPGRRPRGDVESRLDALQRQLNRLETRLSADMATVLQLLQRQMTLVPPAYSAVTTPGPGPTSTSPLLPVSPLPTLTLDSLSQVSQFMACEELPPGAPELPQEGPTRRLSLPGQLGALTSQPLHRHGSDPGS
Description: hERG electrophysiological inhibition assay using the Qube technology (automated patch clamp, CHO cells). As to the method:
(§1) Chinese hamster ovary (CHO) cell line, overexpressing the alpha-subunit of the hERG channel under the control of tetracycline-regulated promoter, was created using commercially available T-REX™ system (Invitrogen). CHO (T-REX™) hERG cells were maintained in Ham's F-12 nutrient medium (Life Tech) supplemented with 10% fetal bovine serum (HyClone), 1% penicillin-streptomycin, 10 μg/mL Blasticidin and 50 μg/mL Zeocin (all from Life Technologies, Thermo Fisher Scientific). For hERG expression induction, 1 μg/ml tetracycline (Sigma-Aldrich) was added to the growth media 24 hours before the current recording. To prepare the cell suspension for Qube experiments, cells were dislodged from culture flask by incubation in Detachin (Genlantis) at 37° C. for approximately 5 min, and resuspended in CHO serum free media (CHO-SFM II, Life Technologies) at a density of 2-3 million cells per mL.
(§2) Patch clamp experiments were performed on the Qube APC (automated patch clamp) platform (Sophion Bioscience A/S, Ballerup, Denmark) using the 384X 10-hole chip at 35° C. Intracellular KF-Ringer's solution consisted of (in mM) 120 KF, 20 KCl, […] ethylene glycol-bis(2-aminoethylether)-N,N,N′,N′-tetraacetic acid (EGTA) and 10 (4-(2-hydroxyethyl)-1-piperazineethanesulfonic acid (HEPES), pH at 7.2 with KOH. Extracellular solution consisted of (in mM) 145 NaCl, 4 KCl, 2 CaCl2, 1 MgCl2, 10 HEPES, 10 Glucose and 0.3% dimethyl sulfoxide (DMSO), pH at 7.4 with NaOH. The hERG current was elicited by applying the following voltage protocol: cells are held at −90 mV resting membrane potential for 100 msec, then clamped at −50 mV for 100 msec for leak estimation, depolarized to +20 mV for 4 sec (peak current measurement) and finally repolarized to −50 mV for 4 sec (tail current recording) before returning to the holding potential of −90 mV. The data are sampled at 10 KHz, with cutoff at 2 kHz, and filtered using the Bessel filter. The protocol was repeated every 15 s, 30 times before and 30 times after a compound application.
All compounds were prepared as 10 mM stock in 100% DMSO, then serially dilutes 1:3 down in Labcyte 384-well Echo Qualified LDV (low […] volume) microplate. The Qube assay plate was prepared by transferring 0.15-0.3 μL of a compound from the serial dilution plate to the 384-well Greiner plate using Labcyte Echo 650 liquid handler (Beckman). Right before the experiment, the compounds in each well were further diluted in extracellular solution using Biomek i7 liquid handler (Beckman) to create the final concentrations of 0.37, 1.1, 3.3, 10, 15 and 30 μM (1:333 dilution to keep the final DMSO concentration in all samples ≤0.3%). Amitriptyline hydrochloride (positive control) and DMSO (0.3%, vehicle control) were included in each plate.
(§3) The results were initially reviewed using the Qube specific Sophion Analyzer software (Sophion Bioscience), then analyzed using Data Analysis and Visualization in Discovery (DAVID) software package (Novartis AG). The compound effect on hERG current inhibition (normalized percentage of inhibition) was calculated as % Inh=(Icompound−Ivehicle)/Ivehicle*−100, where Icompound and Ivehicle are the averages of the last three leak-corrected tail hERG currents […] a compound application, respectively. […]
A general note: The hERG channel carries a current that helps repolarise heart muscle cells.

The target in data set [3] is T3, hERG (Homo sapiens, UniProt Q12809). The data set is described as above. Details: expressed in transfected cells; host or cells: CHO (T-REX) cells, tetracycline-induced. The following applies: human, pH 7.4; 30 μM, CHO (T-REx) hERG cells, 35° C. Here is the method:
as §1, §2
All compounds were prepared as 10 mM stock in 100% DMSO, then serially dilutes 1:3 down in Labcyte 384-well Echo Qualified LDV (low diamond volume) microplate. […]
as §3

In data set [4] the target is T3, hERG. The experiment in a line: hERG channel test using the QPatch technology (automated patch clamp, CHO cells). Details: host or cells: CHO cells. The following applies: for inhibition at 4 min, 30 µM: human, CHO cells stably expressing hERG channels, pH 7.4, highest test concentration 30 μM. As to the method: CHO cells (AVIVA Biosciences Corp, San Diego, CA) stably expressing hERG channels were patched using a QPatch-HT automated patch clamp instrument (Sophion Bioscience A/S, Ballerup, Denmark) in single hole mode. The intracellular solution consisted of 120 mM KCl, 5 mM CaCl2, 2 mM MgCl2, 10 mM ethylene glycolbis (2-aminoethylether)-N,N,N′,N′-tetraacetic acid (EGTA), 10 mM (4-(2-hydroxyethyl)-1-piperazineethanesulfonic acid (HEPES), and 4 mM dipotassium adenosine-5′-triphosphate (ATP-K2), pH adjusted to 7.2 using KOH. The extracellular solution consisted of 145 mM NaCl, 4 mM KCl, 2 CaCl2, 1 mM MgCl2, 10 mM HEPES, and 0.3% dimethyl sulfoxide (DMSO), adjusted to pH 7.4 using NaOH. All measurements were performed at room temperature, and the blockers were pre-incubated for 4 min. The cells were voltage clamped at −90 mV and the hERG current was activated using a voltage step to +20 mV for 4 s. The hERG tail currents were measured by stepping down to −50 mV for 4 s before returning to −90 mV. This protocol was repeated every 20 s. The peak hERG current was automatically corrected by subtracting the leak current, which was estimated by measuring the mean current during a short depolarizing step to −50 mV from the resting membrane potential just prior to the long depolarizing step to • +20 mV at the beginning of the voltage protocol. Test articles were diluted using DMSO stock solutions and the extracellular solution. […] The effect of the test article on the hERG tail current was assessed and 1, 10 and 30 μM and a positive control (amitriptiline, 1, 3 and μM) was included on each plate.

Where [5] appears, read: CHO (T-REx) hERG cells, 35° C., tail current.
The mark [6] stands for this setting: CHO cells stably expressing hERG, room temperature.

T3 sequence (Q12809 whole entry): as above
T1 sequence (Q96P20 whole entry): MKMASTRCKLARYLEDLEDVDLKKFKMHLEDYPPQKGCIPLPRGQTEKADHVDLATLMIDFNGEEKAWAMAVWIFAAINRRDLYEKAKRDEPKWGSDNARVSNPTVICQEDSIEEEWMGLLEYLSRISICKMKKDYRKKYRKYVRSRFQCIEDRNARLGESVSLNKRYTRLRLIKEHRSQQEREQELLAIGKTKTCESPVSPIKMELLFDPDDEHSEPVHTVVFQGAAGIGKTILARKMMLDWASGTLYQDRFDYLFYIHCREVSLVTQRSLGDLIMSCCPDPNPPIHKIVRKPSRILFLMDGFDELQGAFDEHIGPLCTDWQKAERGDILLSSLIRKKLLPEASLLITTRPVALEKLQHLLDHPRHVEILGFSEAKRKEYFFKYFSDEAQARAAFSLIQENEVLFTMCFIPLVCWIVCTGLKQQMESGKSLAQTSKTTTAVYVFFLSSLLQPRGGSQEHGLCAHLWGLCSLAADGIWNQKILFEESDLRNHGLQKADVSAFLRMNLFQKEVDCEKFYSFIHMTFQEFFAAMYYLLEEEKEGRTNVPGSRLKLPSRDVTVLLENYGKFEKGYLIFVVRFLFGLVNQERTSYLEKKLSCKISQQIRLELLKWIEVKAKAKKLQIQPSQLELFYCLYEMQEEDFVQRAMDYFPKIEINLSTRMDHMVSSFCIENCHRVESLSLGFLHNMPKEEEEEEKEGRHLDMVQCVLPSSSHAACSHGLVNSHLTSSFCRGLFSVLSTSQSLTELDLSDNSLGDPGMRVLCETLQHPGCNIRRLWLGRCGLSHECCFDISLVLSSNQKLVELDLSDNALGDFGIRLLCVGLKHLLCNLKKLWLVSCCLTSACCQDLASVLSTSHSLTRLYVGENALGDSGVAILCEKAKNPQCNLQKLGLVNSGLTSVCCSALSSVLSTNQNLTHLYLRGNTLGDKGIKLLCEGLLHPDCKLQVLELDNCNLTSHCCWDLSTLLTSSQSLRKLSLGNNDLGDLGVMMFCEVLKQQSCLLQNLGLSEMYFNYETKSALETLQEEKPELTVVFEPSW
Description for NLRP3 inflammasome: Monocytic THP-1 cells (ATCC: TIB-202) were maintained according to providers' instructions in RPMI media (RPMI/Hepes+10% fetal bovine serum+Sodium Pyruvate+0.05 mM Beta-mercaptoethanol (1000× stock)+Pen-Strep). Cells were differentiated in bulk with 0.5 μM phorbol 12-myristate 13-acetate (PMA; Sigma #P8139) for 3 h, media was exchanged, and cells were plated at 50,000 cells per well in a 384-well flat-bottom cell culture plates (Greiner, #781986), and allowed to differentiate overnight. Compound in a 1:3.16 serial dilution series in DMSO was added 1:100 to the cells and incubated for 1 h. […] 10 μL supernatant was removed, and IL-1β levels were monitored using an HTRF (Homogeneous Time Resolved Fluorescence) assay (CisBio, #62IL1PEC) according to manufacturers' instructions.
IC50 values were calculated from the plot of percentage of inhibition versus the inhibitor concentration by a logistics fit according to: y=A2+(A1−A2)/(1+(x/IC50)^p) where y is the %-inhibition at the inhibitor concentration, x. […] NLRP3-dependent IL-1β secretion was stimulated in PMA-differentiated THP-1 cells by the addition of nigericin, and cytokines were measured in the serum after 3 h. […] Data for IL-1β secretion was calculated as the arithmetic mean of at least 3 individual experiments, and TNF-α secretion data was consistent across at least 2 individual replicates.

For `Cc1cc(C(F)(F)F)cc(O)c1-c1nnc(N[C@@H]2CCCN(C)C2)c2c1COC2` [Reference ex. 3, 3-methyl-2-(4-(((R)-1-methylpiperidin-3-yl)amino)-5,7-dihydrofuro[3,4-d]pyridazin-1-yl)-5-(trifluoromethyl)phenol], the IC50 (in general, the concentration that gives 50% inhibition) is 0.0037 µM against NLRP3 inflammasome, more than 100 µM in data set [1] and more than 30 µM in data set [2] (setting [5]). Moreover, the inhibition (commonly how much of the control response was suppressed) at 7.5 min, 30 µM against hERG [3] is 49.8%.

Turning to `Cc1cc(C(F)(F)F)cc(O)c1-c1cc(CO)c(N[C@@H]2CCCN(C)C2)nn1` [Example 1, (R)-2-(5-(hydroxymethyl)-6-((1-methylpiperidin-3-yl)amino)pyridazin-3-yl)-3-methyl-5-(trifluoromethyl)phenol], the IC50 on NLRP3 inflammasome is 0.00072 µM; in data set [1], more than 100 µM; in data set [2] (setting [5]) it was more than 30 µM; at hERG [4] (CHO cells stably expressing hERG, room temperature, tail current, tested at 1, 10 and 30 μM), more than 30 µM. In data set [2] (comparison in words), the “hERG Qube IC50 compared with reference examples 1 and 2” value was “considerably increased”. Moreover, the “hERG QPatch IC50 compared with reference examples 1 and 2” value at hERG [4] (comparison in words) is on record as “considerably increased”. Moreover, the inhibition at 4 min, 30 µM against hERG [4] (setting [6]) was found to be 24.3%. In addition, the inhibition at 7.5 min, 30 µM against hERG [3] is 40.9%.

`Cc1cc(C(F)(F)F)cc(O)c1-c1cc(C(F)(F)F)c(N[C@@H]2CCCN(C)C2)nn1` [Reference ex. 2, (R)-3-methyl-2-(6-((1-methylpiperidin-3-yl)amino)-5-(trifluoromethyl)pyridazin-3-yl)-5-(trifluoromethyl)phenol]: the IC50 in data set [1] is more than 100 µM; in data set [2] (unit inferred), 5.62 µM; against hERG [4] (unit inferred) it was 3.9 µM. For the same compound, the inhibition at 4 min, 30 µM on hERG [4] (setting [6]) came out at 93.6%. Also, the inhibition at 7.5 min, 30 µM at hERG [3] was determined as 74.9%.

With `Cc1cc(-c2c(C)cc(C(F)(F)F)cc2O)nnc1N[C@@H]1CCCN(C)C1` [Reference ex. 1, (R)-3-Methyl-2-(5-methyl-6-((1-methylpiperidin-3-yl)amino)pyridazin-3-yl)-5-(trifluoromethyl)phenol], the IC50 in data set [1] was more than 33 µM; in data set [2] (unit inferred) it was 4.71 µM; on hERG [4] (unit inferred) it was 13.1 µM. At hERG [4] (setting [6]), this compound showed an inhibition at 4 min, 30 µM of 64.7%. At hERG [3], this compound gave an inhibition at 7.5 min, 30 µM of 77.9%.

Source of the values: US12378222B2, “NLRP3 inflammasome inhibitors” (Novartis AG, priority 2022, dated 2025).
